Experimental data as given in ChEMBL document CHEMBL4007472, “Identification of novel TACE inhibitors compatible with topical application” (Bioorg Med Chem Lett, 2017).
Values after ≈ are worked out from the molar mass of the structure shown.

What was measured:
[1] = biological target: T1, Disintegrin and metalloproteinase domain-containing protein 17 (Homo sapiens, UniProt P78536); test: Inhibition of recombinant human TACE catalytic domain using Mca-Pro-Leu-Ala-Gln-Ala-Val-Dpa-Arg-Ser-Ser-Ser-Arg-NH2 as substrate after 2 hrs by fluorescence assay
[2] = biological target: T1, Disintegrin and metalloproteinase domain-containing protein 17; test: Inhibition of TACE in NHEK assessed as reduction in LPS/TPA-stimulated TNFalpha production preincubated for 1 hr followed by LPS/TPA stimulation for 24 hrs by HTRF assay
[3] = Aqueous solubility of the compound; format: physicochemical
[4] = biological target: T1, Disintegrin and metalloproteinase domain-containing protein 17; test: Inhibition of TACE in human PBMC assessed as inhibition of TNFalpha production
[5] = Stability in human liver microsomes assessed as parent compound remaining at 1 uM after 15 mins by LC-MS/MS analysis; format: ADME, microsome; details: read-out: Stability
Interstitial collagenase = biological target: T2, Interstitial collagenase (Homo sapiens, UniProt P03956); test: Inhibition of recombinant human MMP1 catalytic domain using Mca-Pro-Leu-Gly-Leu-Dpa-Ala-Arg-NH2 as substrate after 10 mins by fluorescence assay
T2 sequence (P03956 whole entry): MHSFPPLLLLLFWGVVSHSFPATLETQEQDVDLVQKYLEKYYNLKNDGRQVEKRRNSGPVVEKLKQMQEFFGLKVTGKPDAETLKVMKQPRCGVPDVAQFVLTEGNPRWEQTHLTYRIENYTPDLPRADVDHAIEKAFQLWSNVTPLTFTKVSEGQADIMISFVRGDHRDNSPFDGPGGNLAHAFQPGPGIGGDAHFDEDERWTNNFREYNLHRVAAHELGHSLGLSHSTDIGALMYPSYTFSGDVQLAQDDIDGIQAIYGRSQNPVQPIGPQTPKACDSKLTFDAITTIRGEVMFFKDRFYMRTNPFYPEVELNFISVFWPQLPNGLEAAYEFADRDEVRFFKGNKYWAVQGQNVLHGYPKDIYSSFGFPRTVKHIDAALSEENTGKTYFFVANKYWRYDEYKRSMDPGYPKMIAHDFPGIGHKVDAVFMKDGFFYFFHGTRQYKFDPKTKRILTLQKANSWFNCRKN

Stromelysin-1 = Stromelysin-1 (Homo sapiens, UniProt P08254); test: Inhibition of MMP3 (unknown origin)
[6] = biological target: Matrix metalloproteinase-9 (Homo sapiens, UniProt P14780); test: Inhibition of MMP9 (unknown origin)
[7] = biological target: Macrophage metalloelastase (Homo sapiens, UniProt P39900); test: Inhibition of MMP12 (unknown origin)
[8] = biological target: T3, Disintegrin and metalloproteinase domain-containing protein 9 (Homo sapiens, UniProt Q13443); test: Inhibition of ADAM9 (unknown origin)
T3 sequence (Q13443 whole entry): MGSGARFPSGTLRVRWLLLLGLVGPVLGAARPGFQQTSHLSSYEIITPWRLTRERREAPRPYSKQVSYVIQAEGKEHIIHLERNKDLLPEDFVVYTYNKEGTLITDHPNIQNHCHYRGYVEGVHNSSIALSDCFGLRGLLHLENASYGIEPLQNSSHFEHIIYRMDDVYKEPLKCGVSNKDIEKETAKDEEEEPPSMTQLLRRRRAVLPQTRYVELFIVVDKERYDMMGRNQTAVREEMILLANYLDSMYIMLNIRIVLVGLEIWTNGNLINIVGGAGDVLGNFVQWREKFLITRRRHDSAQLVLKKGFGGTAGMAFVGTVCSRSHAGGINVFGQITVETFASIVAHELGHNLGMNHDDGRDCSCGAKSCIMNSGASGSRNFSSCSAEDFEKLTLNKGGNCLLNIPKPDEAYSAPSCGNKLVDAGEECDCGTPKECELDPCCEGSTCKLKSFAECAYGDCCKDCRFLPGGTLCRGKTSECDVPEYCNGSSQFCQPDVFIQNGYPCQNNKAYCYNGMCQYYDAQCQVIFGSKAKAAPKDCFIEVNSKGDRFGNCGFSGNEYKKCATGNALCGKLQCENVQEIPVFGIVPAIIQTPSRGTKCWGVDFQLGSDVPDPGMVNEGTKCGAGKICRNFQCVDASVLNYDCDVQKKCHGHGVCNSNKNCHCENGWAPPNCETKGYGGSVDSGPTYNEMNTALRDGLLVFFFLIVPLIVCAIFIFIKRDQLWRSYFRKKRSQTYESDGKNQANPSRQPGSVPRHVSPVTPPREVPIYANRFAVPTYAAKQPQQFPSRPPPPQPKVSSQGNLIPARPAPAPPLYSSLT

[9] = biological target: T4, Disintegrin and metalloproteinase domain-containing protein 10 (Homo sapiens, UniProt O14672); test: Inhibition of ADAM10 (unknown origin)
T4 sequence (O14672 whole entry): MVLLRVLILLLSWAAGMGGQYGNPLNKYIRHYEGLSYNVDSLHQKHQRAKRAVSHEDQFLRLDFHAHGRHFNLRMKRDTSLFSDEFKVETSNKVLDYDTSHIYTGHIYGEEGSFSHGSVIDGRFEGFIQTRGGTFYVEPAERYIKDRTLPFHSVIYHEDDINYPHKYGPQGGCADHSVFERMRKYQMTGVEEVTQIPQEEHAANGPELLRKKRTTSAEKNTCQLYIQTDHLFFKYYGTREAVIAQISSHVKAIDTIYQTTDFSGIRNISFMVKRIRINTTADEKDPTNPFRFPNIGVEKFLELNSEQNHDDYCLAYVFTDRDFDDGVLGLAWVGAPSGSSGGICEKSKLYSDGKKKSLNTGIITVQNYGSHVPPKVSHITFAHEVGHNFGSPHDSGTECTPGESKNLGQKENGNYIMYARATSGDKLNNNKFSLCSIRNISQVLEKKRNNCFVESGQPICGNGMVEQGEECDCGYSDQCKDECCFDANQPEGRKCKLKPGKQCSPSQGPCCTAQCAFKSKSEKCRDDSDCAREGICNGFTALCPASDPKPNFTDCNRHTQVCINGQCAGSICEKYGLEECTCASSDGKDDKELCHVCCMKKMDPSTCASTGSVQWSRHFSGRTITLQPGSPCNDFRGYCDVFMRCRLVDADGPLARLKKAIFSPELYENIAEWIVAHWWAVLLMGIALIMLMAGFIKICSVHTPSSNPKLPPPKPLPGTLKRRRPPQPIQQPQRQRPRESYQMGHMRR

[10] = Fraction unbound in human plasma at 5 uM after 4 hrs by LC-MS/MS based equilibrium dialysis method; format: ADME, cell-free
[11] = Intrinsic clearance in human hepatocytes assessed per million cells at 1 uM up to 90 mins by LC-MS/MS analysis; format: ADME, cell-based, Hepatocyte; details: read-out: CLH
[12] = Half life in human keratinocytes at 1 uM by LC-MS/MS analysis; format: ADME, cell-based, Keratinocyte
[13] = Solubility of the compound in PG/EtOH96; format: physicochemical
[14] = Photoirritancy factor, ratio of EC50 for human neonatal keratinocytes under dark condition to EC50 for human neonatal keratinocytes under 5 J/cm2 UV light exposure; set-up: species or system Neonatal keratinocyte

T1 sequence (P78536 whole entry, the tested form may be a part): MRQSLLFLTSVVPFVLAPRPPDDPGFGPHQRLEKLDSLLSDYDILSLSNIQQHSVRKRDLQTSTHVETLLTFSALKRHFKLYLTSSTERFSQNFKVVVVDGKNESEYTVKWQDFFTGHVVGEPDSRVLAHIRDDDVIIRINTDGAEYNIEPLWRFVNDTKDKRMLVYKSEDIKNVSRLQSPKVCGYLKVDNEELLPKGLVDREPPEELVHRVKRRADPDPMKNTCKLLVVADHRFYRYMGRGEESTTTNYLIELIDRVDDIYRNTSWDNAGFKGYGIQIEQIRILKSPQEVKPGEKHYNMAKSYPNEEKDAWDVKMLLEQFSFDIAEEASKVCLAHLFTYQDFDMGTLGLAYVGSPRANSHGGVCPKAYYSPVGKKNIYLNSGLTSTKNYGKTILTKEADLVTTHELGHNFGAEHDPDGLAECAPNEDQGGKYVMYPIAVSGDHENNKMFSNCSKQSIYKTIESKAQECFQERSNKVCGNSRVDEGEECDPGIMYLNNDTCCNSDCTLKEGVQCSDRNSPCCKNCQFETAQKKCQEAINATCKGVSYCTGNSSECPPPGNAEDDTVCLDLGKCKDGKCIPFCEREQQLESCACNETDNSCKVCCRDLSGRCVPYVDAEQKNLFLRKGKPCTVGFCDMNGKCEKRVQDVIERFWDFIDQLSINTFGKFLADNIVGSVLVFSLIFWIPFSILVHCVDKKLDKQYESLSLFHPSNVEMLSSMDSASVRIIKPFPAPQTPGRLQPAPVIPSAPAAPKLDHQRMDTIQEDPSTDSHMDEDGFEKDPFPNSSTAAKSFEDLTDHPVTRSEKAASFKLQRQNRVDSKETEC
Stromelysin-1, sequence (P08254 whole entry): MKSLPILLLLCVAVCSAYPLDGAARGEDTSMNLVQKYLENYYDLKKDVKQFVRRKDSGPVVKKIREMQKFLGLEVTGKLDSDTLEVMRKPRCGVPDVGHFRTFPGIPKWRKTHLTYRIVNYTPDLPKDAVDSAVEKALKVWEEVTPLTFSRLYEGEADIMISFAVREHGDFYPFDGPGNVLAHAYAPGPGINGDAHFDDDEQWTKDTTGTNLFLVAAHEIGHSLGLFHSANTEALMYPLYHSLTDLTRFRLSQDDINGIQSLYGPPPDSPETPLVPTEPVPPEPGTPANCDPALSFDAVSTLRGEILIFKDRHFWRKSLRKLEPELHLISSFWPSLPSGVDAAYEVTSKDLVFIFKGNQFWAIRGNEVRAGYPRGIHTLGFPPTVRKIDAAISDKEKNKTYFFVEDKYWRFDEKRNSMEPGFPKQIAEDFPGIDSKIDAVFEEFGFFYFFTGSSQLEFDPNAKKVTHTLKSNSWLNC
Macrophage metalloelastase, sequence (P39900 whole entry, the tested form may be a part): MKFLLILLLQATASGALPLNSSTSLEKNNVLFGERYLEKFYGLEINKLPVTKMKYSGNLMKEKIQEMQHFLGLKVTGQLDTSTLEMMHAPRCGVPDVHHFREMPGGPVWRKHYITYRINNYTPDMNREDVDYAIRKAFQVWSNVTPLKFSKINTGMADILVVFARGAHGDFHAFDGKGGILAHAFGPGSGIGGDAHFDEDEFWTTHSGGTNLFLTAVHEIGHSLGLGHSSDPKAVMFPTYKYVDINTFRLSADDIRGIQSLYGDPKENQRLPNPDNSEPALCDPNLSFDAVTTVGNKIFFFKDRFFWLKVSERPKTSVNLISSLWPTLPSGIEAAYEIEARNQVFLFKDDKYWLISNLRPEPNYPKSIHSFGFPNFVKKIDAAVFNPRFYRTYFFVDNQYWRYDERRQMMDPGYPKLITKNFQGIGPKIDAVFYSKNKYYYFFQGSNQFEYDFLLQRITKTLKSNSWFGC
Matrix metalloproteinase-9, sequence (P14780 whole entry): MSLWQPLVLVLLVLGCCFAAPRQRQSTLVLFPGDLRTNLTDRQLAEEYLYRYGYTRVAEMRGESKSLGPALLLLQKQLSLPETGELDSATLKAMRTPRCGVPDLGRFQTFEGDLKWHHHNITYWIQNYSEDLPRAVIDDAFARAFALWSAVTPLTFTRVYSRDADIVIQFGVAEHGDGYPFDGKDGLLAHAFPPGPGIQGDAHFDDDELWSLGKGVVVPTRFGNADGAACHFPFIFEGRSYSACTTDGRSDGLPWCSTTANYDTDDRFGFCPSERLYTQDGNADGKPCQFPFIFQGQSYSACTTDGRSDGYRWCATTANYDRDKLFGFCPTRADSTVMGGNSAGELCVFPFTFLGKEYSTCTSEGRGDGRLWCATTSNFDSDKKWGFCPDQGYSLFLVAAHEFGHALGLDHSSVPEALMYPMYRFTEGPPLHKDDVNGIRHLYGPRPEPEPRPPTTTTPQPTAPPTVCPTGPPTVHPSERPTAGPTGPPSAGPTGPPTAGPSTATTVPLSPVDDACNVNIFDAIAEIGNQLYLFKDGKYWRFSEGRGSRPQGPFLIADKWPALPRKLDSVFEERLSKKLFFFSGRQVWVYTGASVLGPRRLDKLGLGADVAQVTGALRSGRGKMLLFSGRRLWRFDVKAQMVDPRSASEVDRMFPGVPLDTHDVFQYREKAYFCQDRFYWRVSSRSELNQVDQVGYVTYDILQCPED

## CC1(C)SCCN(S(=O)(=O)c2ccc(OCC#CCO)cc2)[C@H]1C(=O)NO
[1]
  IC50: 4 nM
[2]
  IC50: 120 nM
[3]
  solubility: 90 µM (≈ 37.3 µg/mL)
[4]
  IC50: 158 nM

## Cc1cc(COc2ccc(S(=O)(=O)N3CCN(C(=O)C(C)(C)C)C(C(=O)NO)C3)cc2)c2c(n1)CCCC2 (centres undefined)
[1]
  IC50: 12 nM
[5]
  remaining at […], 1 µM: 47%
Interstitial collagenase
  IC50: > 10000 nM
Stromelysin-1
  IC50: > 10000 nM
[6]
  IC50: > 10000 nM
[7]
  IC50: 930 nM
[8]
  IC50: > 10000 nM
[9]
  IC50: > 10000 nM
[2]
  IC50: 1300 nM
[10]
  fraction unbound at 4 h, 5 µM: 0.03
[11]
  hepatocyte CLint at […], 1 µM: 14 µL/min/1e6 cells
[12]
  half-life at 1 µM: > 24 h
[3]
  solubility: 20 µM (≈ 10.9 µg/mL)
[13]
  solubility: > 55 µM
[14]
  Ratio EC50: 1
